In patent US8450293B2, “Synthesis and characterization of C8 analogs of c-di-GMP” (Rutgers, The State University of New Jersey, priority 2010, dated 2013):

Assays:
[1] = NMR / 2D DOSY study of metal-dependent complex formation; format: physicochemical; settings: NMR concentrations (26-31 mM)
Description: Three larger and three smaller resonances clustered near 6 ppm, from the H1′ were observed. Diffusion coefficients (D, m^2/s×10^−1), obtained from a separate 2D DOSY experiment on the same sample, are indicated in parentheses. […] (Zhang et al., J. Am. Chem. Soc. 2006, 128, 7015-7024; Zhao et al., Nucleosides Nucleotides Nucl. Acids 2009, 28, 352-378) Here, all three larger resonances have D=1.5, indicative of octamolecular complexes. The two farthest downfield of the three smaller resonances have D=1.7, indicative of tetramolecular complexes (the octamolecular having been already identified), and the remaining farthest upfield smaller resonance has D=3.5, indicative of a bimolecular structure. At 5° C., all three smaller resonances nearly disappear, leaving primarily the three larger ones. The octamolecular complexes are expected to be preferentially stabilized at lower temperatures. At 55° C., the three larger resonances all decrease, and only the farthest upfield of the smaller resonances increases, confirming it is the bimolecular structure. The higher order complexes are disrupted at higher temperatures, leaving the bimolecular structure dominant.
All NMR spectra were acquired on a Varian VNMRS 500 MHz spectrometer. Samples were 31 mM of 2, 27 mM of 3, 26 mM of […] of 5, and 26 mM of 6, each in 0.30 mL H2O containing 10% D2O. The pH of all samples was adjusted to 6.8, using either HCl or KOH/NaOH/LiOH, as appropriate. Each sample was heated to 75° C. for 10 minutes, then allowed to cool to room temperature before being transferred to the NMR tube. The ^1H and ^13C NMR spectra were referenced to sodium trimethylsilylpropylsulfonate in D2O, and the ^31P NMR spectra were referenced to 10% phosphoric acid in D2O. The 1D ^1H NMR spectra used frequency pre-saturation for water suppression. The DOSY spectra used a pre-saturation pulse for water suppression. The data were collected using a 2.5 second relaxation delay over an 8000 Hz spectral width, with 16 repetitions over 256 increments and a diffusion delay of 0.1 seconds. For the HMBC experiments, the ^1H spectra were acquired with 16 scans, with acquisition time and relaxation delay of 2 s and 1.5 s, respectively. To suppress water, ^1H pre-saturation was applied during the relaxation delay. The ^13C spectra were acquired with 1024 scans, with acquisition time and relaxation delay of 0.5 s and 1 s, respectively. For NOE enhancement and ^1H decoupling, ^1H WALTZ16 decoupling was applied during the entire experiment. ^1H-^13C HMBC 2D spectra were acquired using 2048 (t2) times 100 (t1) complex points with spectral widths of 8000 Hz (t2) and 10000 Hz (t1) and transformed to spectra with 2048 (D1) times 1024 (D2) real points after two times linear prediction in t1. The number of scans per each t1 increment was 128 and the relaxation delay for each scan was 1.5 s. To suppress water, ^1H pre-saturation was applied during the relaxation delay. The DEPT transfer delay for HMBC was chosen as ^2,3JHC=20 Hz (the multi-bond coupling constant) and ^1JHC (the one-bond coupling constant) was set as 140 Hz to suppress cross peaks contributed from the one-bond ^1H-^13C connectivity.

[2] = Solubility in water (noted when preparing NMR samples); format: physicochemical; settings: K+ salt sample for NMR; spectra obtained in 1:1 CH3OD:H2O instead
Method: Portions of the ^1H NMR spectra of the K^+ salts of 4, 5, and 6 at 25° C. are shown in FIGS. 5B, 5C, and 5D, respectively. […] For 4, 5, and 6, the H1′/amino resonances display nearly identical diffusion constants of 3.7/3.5, 2.4/2.5, and 1.9/2.0, respectively. These resonances become larger at 5° C. and disappear completely at 55° C. In all three cases, ^1H spectra of the Na^+ salts closely resemble those of the K^+ salts.

[3] = similar concentrations; Zhang et al. 2004; cited from earlier work

SMILES | complex formed (self-association) ([1]; K+ salt) | complex formed (self-association) ([1]; Na+ salt) | solubility in water [2] | hypochromic effect in UV melt [3]
Nc1nc2c(nc(S)n2[C@@H]2O[C@@H]3COP(=O)(O)OC4C(O)[C@H](n5c(=S)[nH]c6c(=O)[nH]c(N)nc65)O[C@@H]4COP(=O)(O)OC3C2O)c(=O)[nH]1 (stereo partly shown) [compound 3, cyclo-8-thioguanosinylyl (3′→5′)-8′-thioguanosinylyl (3′→5′)] | primarily a syn bimolecular structure | primarily a syn bimolecular structure |  | 
CSc1nc2c(=O)[nH]c(N)nc2n1[C@@H]1O[C@@H]2COP(=O)(O)OC3C(O)[C@H](n4c(SC)nc5c(=O)[nH]c(N)nc54)O[C@@H]3COP(=O)(O)OC2C1O (stereo partly shown) [compound 4, cyclo-8-methylthioguanosinylyl (3′→5′)-8′-methylthioguanosinylyl (3′→5′)] | primarily a syn bimolecular structure | primarily a syn bimolecular structure |  | 
CC(=O)c1cccc(-c2nc3c(=O)[nH]c(N)nc3n2[C@@H]2O[C@@H]3COP(=O)(O)OC4C(O)[C@H](n5c(-c6cccc(C(C)=O)c6)nc6c(=O)[nH]c(N)nc65)O[C@@H]4COP(=O)(O)OC3C2O)c1 (stereo partly shown) [compound 6, cyclo-8-(3-acetylphenyl)-guanosinylyl(3′→5′)-8′-(3-acetylphenyl)-guanosinylyl(3′→5′)] | primarily a syn bimolecular structure | primarily a syn bimolecular structure | not soluble in water | 
Nc1nc2c(ncn2[C@@H]2O[C@@H]3COP(=O)(O)OC4[C@@H](COP(=O)(O)O[C@@H]3C2O)O[C@@H](n2cnc3c(=O)[nH]c(N)nc32)[C@H]4O)c(=O)[nH]1 (stereo partly shown) [compound 1, cyclic diguanosine monophosphate] |  |  |  | pronounced hypochromism
Nc1nc2c(nc(-c3ccccc3)n2[C@@H]2O[C@@H]3COP(=O)(O)OC4C(O)[C@H](n5c(-c6ccccc6)nc6c(=O)[nH]c(N)nc65)O[C@@H]4COP(=O)(O)OC3C2O)c(=O)[nH]1 (stereo partly shown) [compound 5, cyclo-8-phenylguanosinylyl (3′→5′)-8′-phenylguanosinylyl (3′→5′)] | primarily a syn bimolecular structure | primarily a syn bimolecular structure |  | 
